According to article PMC7592892, “Anemarsaponin BII inhibits the activity of CYP3A4, 2D6, and 2E1 with human liver microsomes” (Pharmaceutical Biology, 2020):
pIC50: −log10 of the molar value.

What was measured:
CYP2E1 [1] = molecular target: T1, CYP2E1 (Homo sapiens, UniProt P05181); test: CYP2E1 inhibition in pooled human liver microsomes (chlorzoxazone 6-hydroxylation); assay type: in vitro ADME; details: human, pooled human liver microsomes, pH 7.4, probe chlorzoxazone (6-hydroxylation); HLMs, 0-100 μM anemarsaponin BII
T1 construct: marker reactions with specific substrates in human liver microsomes (HLMs); from tissue; host or cells: pooled human liver microsomes
Protocol: (§1) The activity of CYP450s was evaluated by the marker reactions with specific substrates in human liver microsomes (HLMs). The reaction conditions are summarized in Table 1 according to previous studies. The concentration of anemarsaponin BII was 100 μM with the following concentration of specific inhibitors: 10 μM furafylline for CYP1A2, 10 μM tranylcypromine for CYP2A6, 1 μM ketoconazole for CYP3A4, 5 μM montelukast for CYP2C8, 10 μM sulfaphenazole for CYP2C9, 50 μM tranylcypromine for CYP2C19, 10 μM quinidine for CYP2D6, 50 μM clomethiazole for CYP2E1. 200 μL incubation system included 100 mM potassium phosphate buffer (pH 7.4), NADPH generating system (1 mM NADP^+, 10 mM glucose-6-phosphate, 1 U/mL of glucose-6-phosphate dehydrogenase, and 4 mM MgCl2), the appropriate concentration of HLMs, a corresponding probe substrate and anemarsaponin BII (or positive inhibitor for different probe reactions). The HADPH-generating system was added before the incubation to preincubate for 3 min at 37 °C. The reaction was terminated with 100 μL acetonitrile (10% trichloroacetic acid for CYP2A6). Then, the mixture was centrifuged at 12,000 rpm for 10 min, and an aliquot (50 μL) of supernatant was transferred for HPLC analysis with the help of the Agilent 1260 series instrument with DAD and FLD detector according to previous studies. The HPLC conditions for analysis of corresponding metabolites of CYP isoforms are summarized in Table 2 based on previous studies (Lang et al. [2017]; Zhang et al. [2017]).
Incubations were performed in triplicate, and results were represented with the mean value. The final microsomal protein concentration and incubation times for the different probe reactions are summarized in Table 1 based on previous studies (Lang et al. [2017]; Wang et al. [2019]).
The effect of anemarsaponin BII on the activity of CYPs was evaluated in pooled human liver microsomes according to previous studies (Dong et al. [2018]; Wang et al. [2019]). The residual activity of eight CYP isoforms was first detected with 100 μM anemarsaponin BII in HLMs. Next, CYPs of which the activity was inhibited by anemarsaponin BII was incubated with 0, 2.5, 5, 10, 25, 50 and 100 μM anemarsaponin BII to explore the values of half inhibition concentration (IC50). Additionally, 0–50 μM anemarsaponin BII was incubated with various concentration of probe substrates (20–100 μM testosterone for CYP3A4, 10–50 μM dextromethorphan for CYP2D6, and 25–250 μM chlorzoxazone for CYP2E1) to obtain the values of KI.
The enzyme kinetic parameters for the probe reaction were estimated from the best fit line, using least-squares linear regression of the inverse substrate concentration versus the inverse velocity (Lineweaver–Burk plots), and the mean values were used to calculate Vmax and Km. Inhibition data from the experiments that were conducted using multiple compound concentrations were represented by Dixon plots, and inhibition constant (KI) values were calculated using non-linear regression according to the following equation: Competitive inhibition:v=(VmaxS)/(Km(1+I/KI)+S), Non-competitive inhibition:v=(VmaxS)/[Km+S(1+I/KIKi)] where I is the concentration of the compound, KI is the inhibition constant, S is the concentration of the substrate, and Km is the substrate concentration at half the maximum velocity (Vmax) of the reaction. The mechanism of the inhibition was inspected using the Lineweaver–Burk plots and the enzyme inhibition models. […]

CYP3A4 = molecular target: T2, CYP3A4 (Homo sapiens, UniProt P08684); test: Time-dependent inhibition of CYP3A4 in HLMs; assay type: in vitro ADME
T2 construct: marker reactions with specific substrates in human liver microsomes (HLMs); from tissue; host or cells: pooled human liver microsomes
Protocol: (§2) The effect of incubation time on the inhibition of anemarsaponin BII was evaluated with 20 μM anemarsaponin BII. HLMs were preincubated with anemarsaponin BII and the NADPH-generating system for 30 min at 37 °C. Then, an aliquot (20 μL) was transferred to another incubation tube (final volume 200 μL) containing an NADPH-generating system and probe substrates, of which final concentrations were approximate to Km. After incubating for 0, 5, 10, 15 and 30 min, the reaction was terminated with 100 μL acetonitrile internal standard mix and placed on ice. The metabolites were analyzed by HPLC. To obtain the values of KI and Kinact, another incubation with a higher concentration of substrates (approximately 4-fold Km values) was performed in the presence of 0–50 μM anemarsaponin BII for 0, 5, 10, 15 and 30 min.

CYP2D6 = molecular target: T3, CYP2D6 (Homo sapiens, UniProt P10635); test: Time-dependent inhibition of CYP2D6 in HLMs; assay type: in vitro ADME; details: 20 μM anemarsaponin BII, data not shown
T3 construct: marker reactions with specific substrates in human liver microsomes (HLMs); from tissue; host or cells: pooled human liver microsomes
Protocol: as §2

CYP2E1 [2] = molecular target: T1, CYP2E1; test: Time-dependent inhibition of CYP2E1 in HLMs; assay type: in vitro ADME; details: 20 μM anemarsaponin BII, data not shown
Protocol: as §2

CYP1A2 = tested on: T4, CYP1A2; assay type: in vitro ADME; details: human, microsomes, 100 μM, pH 7.4
T4 construct: marker reactions with specific substrates in human liver microsomes (HLMs); from tissue; host or cells: pooled human liver microsomes
Protocol: as §1, with “[2017]). Incubations were performed in triplicate, and results were represented with the mean value. The final microsomal protein concentration and incubation times for the different probe reactions are summarized in Table 1 based on previous studies (Lang et al. [2017]; Wang et al. [2019]). The effect of anemarsaponin BII on the activity of CYPs was evaluated in pooled human liver microsomes according to previous studies (Dong et al. [2018]; Wang et al. [2019]). The residual activity of eight CYP isoforms was first detected with 100 μM anemarsaponin BII in HLMs. Next, CYPs of which the activity was inhibited by anemarsaponin BII was incubated with 0, 2.5, 5, 10, 25, 50 and 100 μM anemarsaponin BII to explore the values of half inhibition concentration (IC50). Additionally, 0–50 μM anemarsaponin BII was incubated with various concentration of probe substrates (20–100 μM testosterone for CYP3A4, 10–50 μM dextromethorphan for CYP2D6, and 25–250 μM chlorzoxazone for CYP2E1) to obtain the values of KI.” for “[2017]).”

CYP2A6 = tested on: T5, CYP2A6; assay type: in vitro ADME; details: human, microsomes, 100 μM, pH 7.4
T5 construct: marker reactions with specific substrates in human liver microsomes (HLMs); from tissue; host or cells: pooled human liver microsomes
Protocol: as §1, with “[2017]). Incubations were performed in triplicate, and results were represented with the mean value. The final microsomal protein concentration and incubation times for the different probe reactions are summarized in Table 1 based on previous studies (Lang et al. [2017]; Wang et al. [2019]). The effect of anemarsaponin BII on the activity of CYPs was evaluated in pooled human liver microsomes according to previous studies (Dong et al. [2018]; Wang et al. [2019]). The residual activity of eight CYP isoforms was first detected with 100 μM anemarsaponin BII in HLMs. Next, CYPs of which the activity was inhibited by anemarsaponin BII was incubated with 0, 2.5, 5, 10, 25, 50 and 100 μM anemarsaponin BII to explore the values of half inhibition concentration (IC50). Additionally, 0–50 μM anemarsaponin BII was incubated with various concentration of probe substrates (20–100 μM testosterone for CYP3A4, 10–50 μM dextromethorphan for CYP2D6, and 25–250 μM chlorzoxazone for CYP2E1) to obtain the values of KI.” for “[2017]).”

CYP2C19 = tested on: T6, CYP2C19; assay type: in vitro ADME; details: human, microsomes, 100 μM, pH 7.4
T6 construct: marker reactions with specific substrates in human liver microsomes (HLMs); from tissue; host or cells: pooled human liver microsomes
Protocol: as §1, with “[2017]). Incubations were performed in triplicate, and results were represented with the mean value. The final microsomal protein concentration and incubation times for the different probe reactions are summarized in Table 1 based on previous studies (Lang et al. [2017]; Wang et al. [2019]). The effect of anemarsaponin BII on the activity of CYPs was evaluated in pooled human liver microsomes according to previous studies (Dong et al. [2018]; Wang et al. [2019]). The residual activity of eight CYP isoforms was first detected with 100 μM anemarsaponin BII in HLMs. Next, CYPs of which the activity was inhibited by anemarsaponin BII was incubated with 0, 2.5, 5, 10, 25, 50 and 100 μM anemarsaponin BII to explore the values of half inhibition concentration (IC50). Additionally, 0–50 μM anemarsaponin BII was incubated with various concentration of probe substrates (20–100 μM testosterone for CYP3A4, 10–50 μM dextromethorphan for CYP2D6, and 25–250 μM chlorzoxazone for CYP2E1) to obtain the values of KI.” for “[2017]).”

CYP2C8 = tested on: T7, CYP2C8; assay type: in vitro ADME; details: human, microsomes, 100 μM, pH 7.4
T7 construct: marker reactions with specific substrates in human liver microsomes (HLMs); from tissue; host or cells: pooled human liver microsomes
Protocol: as §1, with “[2017]). Incubations were performed in triplicate, and results were represented with the mean value. The final microsomal protein concentration and incubation times for the different probe reactions are summarized in Table 1 based on previous studies (Lang et al. [2017]; Wang et al. [2019]). The effect of anemarsaponin BII on the activity of CYPs was evaluated in pooled human liver microsomes according to previous studies (Dong et al. [2018]; Wang et al. [2019]). The residual activity of eight CYP isoforms was first detected with 100 μM anemarsaponin BII in HLMs. Next, CYPs of which the activity was inhibited by anemarsaponin BII was incubated with 0, 2.5, 5, 10, 25, 50 and 100 μM anemarsaponin BII to explore the values of half inhibition concentration (IC50). Additionally, 0–50 μM anemarsaponin BII was incubated with various concentration of probe substrates (20–100 μM testosterone for CYP3A4, 10–50 μM dextromethorphan for CYP2D6, and 25–250 μM chlorzoxazone for CYP2E1) to obtain the values of KI.” for “[2017]).”

CYP2C9 = tested on: T8, CYP2C9; assay type: in vitro ADME; details: human, microsomes, 100 μM, pH 7.4
T8 construct: marker reactions with specific substrates in human liver microsomes (HLMs); from tissue; host or cells: pooled human liver microsomes
Protocol: as §1, with “[2017]). Incubations were performed in triplicate, and results were represented with the mean value. The final microsomal protein concentration and incubation times for the different probe reactions are summarized in Table 1 based on previous studies (Lang et al. [2017]; Wang et al. [2019]). The effect of anemarsaponin BII on the activity of CYPs was evaluated in pooled human liver microsomes according to previous studies (Dong et al. [2018]; Wang et al. [2019]). The residual activity of eight CYP isoforms was first detected with 100 μM anemarsaponin BII in HLMs. Next, CYPs of which the activity was inhibited by anemarsaponin BII was incubated with 0, 2.5, 5, 10, 25, 50 and 100 μM anemarsaponin BII to explore the values of half inhibition concentration (IC50). Additionally, 0–50 μM anemarsaponin BII was incubated with various concentration of probe substrates (20–100 μM testosterone for CYP3A4, 10–50 μM dextromethorphan for CYP2D6, and 25–250 μM chlorzoxazone for CYP2E1) to obtain the values of KI.” for “[2017]).”

[3] = rat, in vivo; cited from earlier work
[4] = rat, in vivo, 171.61 mg/kg; cited from earlier work

T2 sequence (P08684 whole entry): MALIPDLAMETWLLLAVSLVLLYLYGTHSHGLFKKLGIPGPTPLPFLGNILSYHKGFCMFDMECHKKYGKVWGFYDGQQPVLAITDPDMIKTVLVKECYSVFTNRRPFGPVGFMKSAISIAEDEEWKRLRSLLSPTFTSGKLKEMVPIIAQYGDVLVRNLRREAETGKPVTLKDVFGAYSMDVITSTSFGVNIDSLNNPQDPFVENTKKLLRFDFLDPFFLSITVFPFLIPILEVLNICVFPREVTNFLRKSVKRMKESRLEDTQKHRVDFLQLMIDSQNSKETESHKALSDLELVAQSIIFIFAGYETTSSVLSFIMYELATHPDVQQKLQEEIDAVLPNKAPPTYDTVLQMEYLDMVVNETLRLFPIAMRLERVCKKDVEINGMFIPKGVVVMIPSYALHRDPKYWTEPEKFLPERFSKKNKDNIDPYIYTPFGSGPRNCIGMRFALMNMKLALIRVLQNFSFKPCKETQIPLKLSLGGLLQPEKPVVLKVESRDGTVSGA
T1 sequence (P05181 whole entry): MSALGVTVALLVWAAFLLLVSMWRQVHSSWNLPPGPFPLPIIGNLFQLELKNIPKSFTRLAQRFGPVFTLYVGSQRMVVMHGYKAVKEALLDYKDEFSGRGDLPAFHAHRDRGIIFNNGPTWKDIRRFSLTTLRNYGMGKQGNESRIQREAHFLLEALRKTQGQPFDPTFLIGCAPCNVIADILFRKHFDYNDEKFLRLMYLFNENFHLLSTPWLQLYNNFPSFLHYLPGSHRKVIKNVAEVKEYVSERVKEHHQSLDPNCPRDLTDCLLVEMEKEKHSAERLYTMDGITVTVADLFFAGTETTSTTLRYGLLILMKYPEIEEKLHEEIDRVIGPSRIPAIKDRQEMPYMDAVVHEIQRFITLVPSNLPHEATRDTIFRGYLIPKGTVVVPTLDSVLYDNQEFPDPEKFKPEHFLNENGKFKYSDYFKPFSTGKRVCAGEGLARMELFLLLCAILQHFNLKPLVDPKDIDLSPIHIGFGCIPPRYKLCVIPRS
T3 sequence (P10635 whole entry): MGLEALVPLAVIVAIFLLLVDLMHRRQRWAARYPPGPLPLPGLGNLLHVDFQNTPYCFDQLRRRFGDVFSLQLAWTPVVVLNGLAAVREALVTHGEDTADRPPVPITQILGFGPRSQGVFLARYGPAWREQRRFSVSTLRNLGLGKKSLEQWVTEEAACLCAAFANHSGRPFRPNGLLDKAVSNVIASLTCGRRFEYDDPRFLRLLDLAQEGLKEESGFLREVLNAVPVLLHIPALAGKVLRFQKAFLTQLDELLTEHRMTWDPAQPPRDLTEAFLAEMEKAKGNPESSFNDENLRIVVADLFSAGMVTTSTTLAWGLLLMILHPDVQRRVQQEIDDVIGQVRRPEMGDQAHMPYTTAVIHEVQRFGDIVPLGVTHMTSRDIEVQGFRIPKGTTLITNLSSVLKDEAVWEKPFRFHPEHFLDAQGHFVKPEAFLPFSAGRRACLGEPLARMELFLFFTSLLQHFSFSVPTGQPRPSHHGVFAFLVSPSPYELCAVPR

With `CC(CCC1(O)OC2CC3C4CCC5CC(OC6OC(CO)C(O)C(O)C6OC6OC(CO)C(O)C(O)C6O)CCC5(C)C4CCC3(C)C2C1C)COC1OC(CO)C(O)C(O)C1O` (stereo not shown) [anemarsaponin BII, Anemarsaponin BII] the pIC50 (CYP2E1 [1]) was 4.72, the “effect of incubation time on inhibition of CYP3A4” value (CYP3A4; 20 μM anemarsaponin BII) was “increased with the incubation time” and the kinact (CYP3A4; human, human liver microsomes, NADPH, 0–50 μM anemarsaponin BII, 0-30 min, non-linear regression) was 0.000883 s⁻¹. The “effect of incubation time on inhibition of CYP2D6” value (CYP2D6) was “not affected by the incubation time”, the “effect of incubation time on inhibition of CYP2E1” value (CYP2E1 [2]) was “not affected by the incubation time” and the “effect on activity of CYP1A2” value (CYP1A2) was “only the activity of CYP3A4, 2D6 and 2E1 was significantly inhibited”. The “effect on activity of CYP2A6” value (CYP2A6) was “only the activity of CYP3A4, 2D6 and 2E1 was significantly inhibited”, the “effect on activity of CYP2C19” value (CYP2C19) was “only the activity of CYP3A4, 2D6 and 2E1 was significantly inhibited” and the “effect on activity of CYP2C8” value (CYP2C8) was “only the activity of CYP3A4, 2D6 and 2E1 was significantly inhibited”. For the same molecule, the “effect on activity of CYP2C9” value (CYP2C9) was “only the activity of CYP3A4, 2D6 and 2E1 was significantly inhibited”, the “half-life (t1/2)” value [3] was 2.7 h and the Cmax [4] was 0.27122 µg/mL. For the same molecule, the t1/2 [4] was 3.21 h.
